Experiments:
BRD4 (BD1) = target: T1, BRD4 (BD1) (Homo sapiens, UniProt O60885); experiment: BRD4 (BD1) bromodomain binding, HTRF; conditions: 2 h incubation at r.t.
T1 construct: Each member comprises two tandem bromodomains (BD1 and BD2) for recognizing the acetylated lysine residues

BRD4 (BD2) = target: T2, BRD4 (BD2) (Homo sapiens, UniProt O60885); experiment: BRD4 (BD2) bromodomain binding, HTRF; conditions: 2 h incubation at r.t.
T2 construct: Each member comprises two tandem bromodomains (BD1 and BD2) for recognizing the acetylated lysine residues

MV-4-11 cells = experiment: Inhibitory effect on MV-4-11 cells (CellTiter-Glo); type: cell-based; conditions: Homo sapiens, MV4-11; 72 hours, CellTiter-Glo; read-out: MV-4-11
Description: The 1st Day: Seed the Cells on the Plate
1. The cells were verified that they were in good conditions by observation under microscope;
2. The cells were transferred to a 15 mL centrifuge tube, after centrifuged at 1000 rpm for 5 min, the supernatant was discarded;
3. The complete medium (IMDM+10% FBS) was added, then blown and patted into single cell suspension, counted by Vi-cell cytometer, the cell suspension was adjusted to desired cell density by the complete medium.
4. The cells were inoculated into a 96 well plate, the cell number was 15000/well at 100 μL per well, 100 μL complete medium was added into the black control.
5. 37° C., 5% CO2 culture overnight.
The 2nd Day: Addition of the Drugs
1. 1000× Compound Plate Preparation
1.1. The test compound was prepared into 10 mM working solution by using DMSO. Then the STS was prepared into 2 mM working solution by using DMSO.
1.2. In the round bottom 96 wells plate, the column 2 of row A to H was added into 60 μL 10 mM test compound (or STS) working solution, columns 3-11 were added into 40 μL DMSO, 20 μL drug solution was pipetted from the column 2 to the column 3, blown and patted for a homogeneous mixture; then 20 μL solution was pipetted from the column 3 to the column 4, blown and patted for a homogeneous mixture, sequently, the drug was diluted by 3 times, 10 concentrations in total. The columns 1 and 12 were supplemented with 40 μL of DMSO.
2. Intermediate plate areparation
A sterile V-bottom 96 deep well plate was used and in each well, 495 μL FBS-free PRMI 1640 medium was added, then 5 μL of the diluted compound (or DMSO) in the 1000× compound plate was pipetted into corresponding position of the V-bottom 96 well plate, blown and patted evenly.
3.1. The cell plate was taken out from the incubator and was observed under microscope. The diluted compound or DMSO in the intermediate plate was added into the cell plate, 11 μL each well.
3.2. The cell was continued to be cultured at 37° C., 5% CO2 for 72 hours.
The 5th Day: CellTiter-Glo Detection of the Cell Activity
1. The CellTiter-Glo buffer and the reaction substrate were taken out from the refrigerator, after balanced to r.t., the buffer was poured into a brown bottle containing the substrate, the bottle was upside down to have the substrate powder sufficientaly dissolved.
2. The cell was observed under microscope; the cell plate was balanced to r.t.
3. The prepared CellTiter-Glo was added into the 96 well plate, at 100 μL/well.
4. The cell plate was placed on a shaker for 10 min, followed by standing at r.t. for 10 min.
5. A white seal film was attached to the bottom of the well plate, and the chemiluminescence signal of each well was detected by the Enspire microplate detector.
6. XLfit was used for data processing. Inhibition rate %=(d−c)/(d−b)×100, while d is the signal value of the DMSO treated group, c is the signal value of the compound treated group, b is signal value of the blank control that only containing medium and DMSO without cells. The data was fitted using the f(x)205[fit=(A+((B−A)/(1+((C/x)^∧D))))] equation in the XLfit software.

| IC50 (BRD4 (BD1)) [nM] | IC50 (BRD4 (BD2)) [nM] | IC50 (MV-4-11 cells) [nM] | Structure (SMILES) |
| --- | --- | --- | --- |
| 30 | 43 | 637 | Cn1cc2c(cc1=O)CN=C(c1ccc(Cl)cc1)c1ccccc1-2 [Compound 4010, 7-(4-chlorophenyl)-2-methyl-2H-benzo[c]pyrido[3,4-e]azepin-3(5H)-ketone] |
| 7 | 2 | 75 | CCS(=O)(=O)Cc1ccc2c(c1)-c1cn(C)c(=O)cc1CN=C2c1ccc(Cl)cc1F [Compound 4013, 7-(4-chloro-2-fluorophenyl)-10-((ethylsulfone)methyl)-2-methyl-2,5-dihydro-3H-benzo[c]pyrido[3,4-e]azepin-3-ketone] |
| 2 | 1 | 292 | Cn1cc2c(cc1=O)[C@H](CC(N)=O)N=C(c1ccc(F)cc1)c1ccc(CS(C)(=O)=O)cc1-2 [Compound 4014, (S)-2-(7-(4-fluorophenyl)-2-methyl-10-(methylsulfonylmethyl)-3-oxo-3,5-dihydro-2H-benzo[c]pyrido[3,4-e]azepin-5-yl)acetamide] |
| 2 | 1 | 69 | CCNC(=O)C[C@@H]1N=C(c2ccc(F)cc2)c2ccc(CS(C)(=O)=O)cc2-c2cn(C)c(=O)cc21 [Compound 4015, (S)—N-ethyl-2-(7-(4-fluorophenyl)-2-methyl-10-(methylsulfonemethyl)-3-oxo-3,5-dihydro-2H-benzo[c]pyrido[3,4-e]azepin-5-yl)acetamide] |
| 10 | 37 | 144 | COc1ccc2c(c1)-c1cn(C)c(=O)cc1CN=C2c1ccc(F)cc1 [Compound 4019, 7-(4-fluorophenyl)-10-methoxy-2-methyl-2,5-dihydro-3H-benzo[c]pyrido[3,4-e]azepin-3-one] |
| 11 | 10 | 134 | COc1ccc2c(c1)C(c1ccc(F)cc1)=NCc1cc(=O)n(C)cc1-2 [Compound 4020, 7-(4-fluorophenyl)-9-methoxy-2-methyl-2,5-dihydro-3H-benzo[c]pyrido[3,4-e]azepin-3-one] |
| 12 | 7 | 190 | CCS(=O)(=O)Cc1cnc2c(c1)-c1cn(C)c(=O)cc1CN=C2c1ccc(F)cc1 [Compound 4022, 10-((ethylsulfonyl)methyl)-7-(4-fluorophenyl)-2-methyl-2,5-dihydro-3H-dipyrido[2,3-c: 3′,4′-e]azepin-3-ketone] |
| 2 | 1 | 9 | CCS(=O)(=O)Nc1ccc2c(c1)-c1cn(C)c(=O)cc1CN=C2c1ccc(Cl)cc1 [Compound 4024, N-(7-(4-chlorophenyl)-2-methyl-3-oxo-3,5-dihydro-2H-benzo[c]pyrido[3,4-e]azepin-3-yl)ethanesulfonamide] |
| 7 | 3 | 54 | C[C@@H]1N=C(c2ccc(Cl)cc2)c2ccccc2-c2cn(C)c(=O)cc21 [Compound 4025, (S)-7-(4-chlorophenyl)-2,5-dimethyl-2,5-dihydro-3H-benzo[c]pyrido[3,4-e]azepin-3-ketone] |
| 12 | 6 | 128 | CCS(=O)(=O)Cc1cc2c(cn1)C(c1ccc(Cl)cc1)=NCc1cc(=O)n(C)cc1-2 [Compound 4027, 7-(4-chlorophenyl)-10-((ethylsulfonyl)methyl)-2-methyl-2,5-dihydro-3H-dipyrido[3,4-c:3′,4′-e]azepin-3-ketone] |
| 22 | 2 | 161 | CCS(=O)(=O)Cc1ccc2c(c1)-c1cn(C)c(=O)cc1CN=C2c1ccc(F)cc1Cl [Compound 4028, 7-(2-chloro-4-fluorophenyl)-10-((ethylsulfone)methyl)-2-methyl-2,5-dihydro-3H-benzo[c]pyrido[3,4-e]azepin-3-ketone] |
| 6 | 2 | 69 | Cn1cc2c(cc1=O)[C@H](CC(N)=O)N=C(c1ccc(Cl)cc1)c1ncccc1-2 [Compound 4029, (S)-2-(7-(4-chlorophenyl)-2-methyl-3-oxo-3,5-dihydro-2H-dipyrido[2,3-c:3′,4′-e]azepin-5-yl)acetamide] |
| 6 | 2 | 17 | CCNC(=O)C[C@@H]1N=C(c2ccc(Cl)cc2)c2ncccc2-c2cn(C)c(=O)cc21 [Compound 4030, (S)-2-(7-(4-chlorophenyl)-2-methyl-3-oxo-3,5-dihydro-2H-dipyrido[2,3-c:3′,4′-e]azepin-5-yl)-N-ethyl acetamide] |
| 3 | 2 | 6 | CC(C)NC(=O)C[C@@H]1N=C(c2ccc(Cl)cc2)c2ccccc2-c2cn(C)c(=O)cc21 [Compound 4032, (S)-2-(7-(4-chlorophenyl)-2-methyl-3-oxo-3,5-dihydro-2H-benzo[c]pyrido[3,4-e]azepin-5-yl)-N-isopropylacetamide] |
| 341 | 144 | 985 | CCS(=O)(=O)Cc1ccc2c(c1)-c1cn(C)c(=O)cc1[C@@H](C)N=C2c1ccc(F)cc1 [Compound 4033, (R)-10-((ethylsulfone)methyl)-7-(4-fluorophenyl)-2,5-dimethyl-2,5-dihydro-3H-benzo[c]pyrido[3,4-e]azepin-3-ketone] |
| 4 | 1 | 15 | CCNC(=O)C[C@@H]1N=C(c2ccc(Cl)cc2)c2cc(F)ccc2-c2cn(C)c(=O)cc21 [Compound 4034, (S)-2-(7-(4-chlorophenyl)-9-fluoro-2-methyl-3-oxo-3,5-dihydro-2H-benzo[c]pyrido[3,4-e]azepin-5-yl)N-ethyl acetamide] |
| 2 | 1 | 6 | CCS(=O)(=O)Cc1ccc2c(c1)-c1cn(C)c(=O)cc1[C@H](C)N=C2c1ccc(Cl)cc1 [Compound 4037, (S)-10-((ethylsulfonyl)methyl)-7-(4-chlorophenyl)-2,5-dimethyl-2,5-dihydro-3H-benzo[c]pyrido[3,4-e]azepin-3-ketone] |
| 5 | 2 | 43 | CCS(=O)(=O)Cc1ccc2c(c1)-c1cn(C)c(=O)cc1[C@H](C(F)(F)F)N=C2c1ccc(F)cc1 [Compound 4040, (R)-10-((ethylsulfonyl)methyl)-7-(4-flurophenyl)-2-methyl-5-(trifluoromethyl)-2,5-dihydro-3H-benzo[c]pyrido[3,4-e]azepin-3-ketone] |
| 1 | 1 | 7 | CCS(=O)(=O)Cc1ccc2c(c1)-c1cn(C)c(=O)cc1[C@H](C1CC1)N=C2c1ccc(F)cc1 [Compound 4042, (S)-5-cyclopropyl-10-((ethylsulfonyl)methyl)-7-(4-flurophenyl)-2-methyl-2,5-dihydro-3H-benzo[c]pyrido[3,4-e]azepin-3-ketone] |
| 1 | 2 | 8 | C[C@@H]1N=C(c2ccc(F)cc2)c2ccc(CS(=O)(=O)C(F)(F)F)cc2-c2cn(C)c(=O)cc21 [Compound 4043, (S)-7-(4-flurophenyl)-2,5-dimethyl-10-((trifluoromethylsulphone)methyl)-2,5-dihydro-3H-benzo[c]pyrido[3,4-e]azepin-3-ketone] |
| 1 | 1 | 7 | CC(C)S(=O)(=O)Cc1ccc2c(c1)-c1cn(C)c(=O)cc1[C@H](C)N=C2c1ccc(F)cc1 [Compound 4044, (S)-10-((isopropylsulfone)methyl)-7-(4-flurophenyl)-2,5-dimethyl-2,5-dihydro-3H-benzo[c]pyrido[3,4-e]azepin 3-ketone] |
| 1 | 1 | 8 | C[C@@H]1N=C(c2ccc(F)cc2)c2ccc(CS(=O)(=O)C3CC3)cc2-c2cn(C)c(=O)cc21 [Compound 4045, (S)-7-(4-flurophenyl)-2,5-dimethyl-10-((cyclopropylsulfone)methyl)-2,5-dihydro-3H-benzo[c]pyrido[3,4-e]azepin-3-ketone] |
| 1 | 1 | 4 | CCS(=O)(=O)Cc1ccc2c(c1)-c1cn(C)c(=O)cc1[C@H](C)N=C2c1ccc(F)cc1F [Compound 4046] |
| 0.4 | 1 | 2 | CC[C@@H]1N=C(c2ccc(Cl)cc2)c2ccc(CS(=O)(=O)CC)cc2-c2cn(C)c(=O)cc21 [Compound 4047, (S)-5-ethyl-10-((ethylsulfonyl)methyl)-7-(4-chlorophenyl)-2-methyl-2,5-dihydro-3H-benzo[c]pyrido[3,4-e]azepin-3-ketone] |
| 5 | 0.8 | – | CCS(=O)(=O)Cc1ccc2c(c1)-c1cn(C)c(=O)cc1[C@H](C)N=C2c1cc(OC)c(F)cc1Cl [Compound 4102, (S)-7-(2-chloro-4-fluoro-5-methoxylphenyl)-10-((ethylsulfonyl)methyl)-2,5-dimethyl-2,5-dihydro-3H-benzo[c]pyrido[3,4-e]azepin-3-ketone] |
| 2 | 0.6 | – | CNS(=O)(=O)Cc1ccc2c(c1)-c1cn(C)c(=O)cc1[C@H](C)N=C2c1ccc(F)c(OC)c1 [Compound 4103, (S)-1-(7-(4-fluoro-3-methoxylphenyl)-2,5-dimethyl-3-oxo-3,5-dihydro-2H-benzo[c]pyrido[3,4-e]azepin-10-yl)-N-methylmethane sulfamide] |
| 2 | 1 | – | CCS(=O)(=O)Cc1ccc2c(c1)-c1cn(C)c(=O)cc1[C@H](C)N=C2c1ccc(OC)c(F)c1 [Compound 4104, (S)-10-((ethylsulfonyl)methyl)-7-(3-fluoro-4-methoxylphenyl)-2,5-dimethyl-2,5-dihydro-3H-benzo[c]pyrido[3,4-e]azepin-3-ketone] |
| 2 | 1 | – | CCS(=O)(=O)Cc1ccc2c(c1)-c1cn(C)c(=O)cc1[C@H](C)N=C2c1ccncc1 [Compound 4105, (S)-10-((ethylsulfonyl)methyl)-2,5-dimethyl-7-(pyridin-4-yl)-2,5-dihydro-3H-benzo[c]pyrido[3,4-e]azepin-3-ketone] |

Reference: patent publication US20190284192A1, “NITROGENOUS MACROCYCLIC COMPOUND, PREPARATION METHOD THEREFOR, PHARMACEUTICAL COMPOSITION AND APPLICATION THEREOF” (LUOXIN PHARMACEUTICAL (SHANGHAI) CO., LTD., priority 2016, published 2019)
